Reference: the supplement of paper PMC10307832

Compound: Cc1ccc(C(=O)Nc2ccc(CN3CCN(C)CC3)c(C(F)(F)F)c2)cc1C#Cc1cnc2cccnn12 [Ponatinib] + COc1cc2c(Oc3ccc(NC(=O)C4(C(=O)Nc5ccc(F)cc5)CC4)cc3F)ccnc2cc1OCCCN1CCOCC1 [Foretinib] (partner 0.25 µM)
Test: relative viability (nuclei count vs DMSO), 5 days (fraction); higher = more cells survive
Details: first compound 0.006325 µM
In short: (§1)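 Relative viability equals treated-well nuclei counts divided by vehicle-well nuclei counts. Counts came from 4× images of lung cancer cell lines grown in 1536-well plates for 5 days after pin-tool dosing on the day after seeding. Dosing used one drug alone or a fixed anchor-drug dose plus five library-drug doses (not always all listed) in √10 steps, and values are medians of duplicate plates.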

Cell Line | relative viability
NCI-H2347 | 0.818
PC-14 | 1.04
LCLC-103H | 0.755
NCI-H596 | 0.753
NCI-H2126 | 1.29
EMC-BAC-2 | 0.989
NCI-H2085 | 0.836
Calu-6 | 0.867
HCC-366 | 0.939
NCI-H1666 | 0.988
NCI-H647 | 1.01
LK-2 | 1.07
NCI-H2087 | 0.864
NCI-H1395 | 0.996
H3255 | 0.898
COR-L23 | 0.896
COR-L 105 | 1.15
IA-LM | 1.1

Cell Line | relative viability
LOU-NH91 | 0.98
ChaGo-K-1 | 0.923
NCI-H358 | 0.731
NCI-H3122 | 0.981
HOP-62 | 1
A549 | 0.941
SW 900 | 0.998
NCI-H2009 | 1.2
NCI-H520 | 0.786
SW 1573 | 0.767
NCI-H1299 | 1.09
NCI-H2228 | 0.83
NCI-H2023 | 0.89
NCI-H1563 | 0.863
SK-LU-1 | 0.795
SK-MES-1 | 1.08
NCI-H661 | 0.98

Same assay, conditions: first compound 0.06325 µM

Cell Line | relative viability
NCI-H2342 | 1.01
NCI-H1623 | 0.889
NCI-H838 | 1.05
NCI-H1650 | 1.55
EBC-1 | 0.092
NCI-H1703 | 0.273
NCI-H1993 | 0.973
NCI-H2347 | 1.38
PC-14 | 1.14
LCLC-103H | 0.775
NCI-H596 | 0.851
NCI-H2126 | 1.34
EMC-BAC-2 | 1.06
NCI-H2085 | 0.879
Calu-6 | 0.931
HCC-366 | 0.955
NCI-H1666 | 1.06
NCI-H647 | 1.24
LK-2 | 0.687
NCI-H2087 | 1.01
NCI-H1395 | 0.945

Cell Line | relative viability
H3255 | 0.699
COR-L23 | 0.929
COR-L 105 | 1.23
IA-LM | 1.01
LOU-NH91 | 0.996
ChaGo-K-1 | 0.959
NCI-H358 | 1.02
NCI-H3122 | 1
HOP-62 | 1
A549 | 1.13
SW 900 | 1.12
NCI-H2009 | 1.22
NCI-H520 | 0.496
SW 1573 | 0.922
NCI-H1299 | 1.15
NCI-H2228 | 0.907
NCI-H2023 | 0.962
NCI-H1563 | 0.955
SK-LU-1 | 0.826
SK-MES-1 | 1.25
NCI-H661 | 0.993

Same assay, conditions: first compound 0.2 µM

Cell Line | relative viability
NCI-H2342 | 0.972
NCI-H1623 | 0.833
NCI-H838 | 0.955
NCI-H1650 | 1.31
EBC-1 | 0.115
NCI-H1703 | 0.257
NCI-H1993 | 0.76
NCI-H2347 | 1.01
PC-14 | 0.975
LCLC-103H | 0.688
NCI-H596 | 0.721
NCI-H2126 | 1.07
EMC-BAC-2 | 0.986
NCI-H2085 | 0.832
Calu-6 | 0.816
HCC-366 | 0.956
NCI-H1666 | 0.886
NCI-H647 | 1.08
LK-2 | 0.739
NCI-H2087 | 0.868
NCI-H1395 | 0.904

Cell Line | relative viability
H3255 | 0.773
COR-L23 | 0.796
COR-L 105 | 1.3
IA-LM | 1.06
LOU-NH91 | 0.931
ChaGo-K-1 | 0.832
NCI-H358 | 0.784
NCI-H3122 | 0.943
HOP-62 | 0.914
A549 | 0.887
SW 900 | 0.593
NCI-H2009 | 1.17
NCI-H520 | 0.596
SW 1573 | 0.864
NCI-H1299 | 1.07
NCI-H2228 | 0.791
NCI-H2023 | 0.657
NCI-H1563 | 0.854
SK-LU-1 | 0.63
SK-MES-1 | 0.959
NCI-H661 | 0.998

Compound: Cc1ccc(Nc2nccc(N(C)c3ccc4c(C)n(C)nc4c3)n2)cc1S(N)(=O)=O [Pazopanib] + Cc1nc(NC(=O)N2CCC[C@H]2C(N)=O)sc1-c1ccnc(C(C)(C)C(F)(F)F)c1 [Alpelisib] (partner 2 µM)
Test: as above
Details: first compound 0.01 µM
In short: as §1

Cell Line | relative viability
NCI-H838 | 1.01
EBC-1 | 0.914
NCI-H1703 | 0.338
NCI-H1993 | 0.67
NCI-H2347 | 1.06
PC-14 | 0.883
LCLC-103H | 0.782
NCI-H596 | 0.473
NCI-H2126 | 0.65
EMC-BAC-2 | 0.702
NCI-H2085 | 0.964
Calu-6 | 0.973
HCC-366 | 0.33
NCI-H1666 | 1.07
NCI-H647 | 1.37
LK-2 | 0.816
NCI-H2087 | 1.08
NCI-H1395 | 1.02
H3255 | 0.612

Cell Line | relative viability
COR-L23 | 0.752
COR-L 105 | 0.981
IA-LM | 0.665
LOU-NH91 | 0.754
NCI-H358 | 1.06
NCI-H3122 | 0.733
HOP-62 | 0.68
HCC-44 | 0.664
A549 | 0.798
NCI-H2009 | 1.08
SW 1573 | 0.69
NCI-H1299 | 1.07
NCI-H2228 | 0.783
NCI-H2023 | 0.58
NCI-H1563 | 0.902
SK-LU-1 | 0.977
SK-MES-1 | 0.816
NCI-H661 | 0.549

Same assay, conditions: first compound 0.03162 µM

Cell Line | relative viability
NCI-H838 | 1.02
EBC-1 | 0.907
NCI-H1703 | 0.293
NCI-H1993 | 0.7
NCI-H2347 | 1.04
PC-14 | 0.996
LCLC-103H | 0.823
NCI-H596 | 0.479
NCI-H2126 | 0.751
EMC-BAC-2 | 0.764
NCI-H2085 | 0.974
Calu-6 | 1.09
HCC-366 | 0.37
NCI-H1666 | 1.06
NCI-H647 | 1.31
LK-2 | 0.996
NCI-H2087 | 1.14
NCI-H1395 | 1.03
H3255 | 0.743
COR-L23 | 0.957

Cell Line | relative viability
COR-L 105 | 1.03
IA-LM | 0.856
LOU-NH91 | 0.729
NCI-H358 | 0.892
NCI-H3122 | 0.734
HOP-62 | 1
HCC-44 | 0.806
A549 | 0.685
NCI-H2009 | 1.19
NCI-H520 | 1.04
SW 1573 | 0.707
NCI-H1299 | 0.976
NCI-H2228 | 0.89
NCI-H1792 | 0.703
NCI-H2023 | 0.567
NCI-H1563 | 0.868
SK-LU-1 | 1.24
SK-MES-1 | 0.872
NCI-H661 | 0.581

Same assay, conditions: first compound 0.1 µM

Cell Line | relative viability
NCI-H838 | 1.07
EBC-1 | 0.913
NCI-H1703 | 0.216
NCI-H1993 | 0.759
NCI-H2347 | 1.08
PC-14 | 0.959
LCLC-103H | 1.03
NCI-H596 | 0.487
NCI-H2126 | 0.821
EMC-BAC-2 | 0.808
NCI-H2085 | 1.02
Calu-6 | 1.04
HCC-366 | 0.54
NCI-H1666 | 1.02
NCI-H647 | 1.35
LK-2 | 1.03
NCI-H2087 | 1.22
NCI-H1395 | 1.02
H3255 | 0.833

Cell Line | relative viability
COR-L23 | 0.993
COR-L 105 | 1.04
IA-LM | 0.876
LOU-NH91 | 0.774
NCI-H358 | 0.91
NCI-H3122 | 0.783
HCC-44 | 0.766
A549 | 0.828
NCI-H2009 | 1.26
NCI-H520 | 0.884
SW 1573 | 0.683
NCI-H1299 | 1.12
NCI-H2228 | 1.02
NCI-H1792 | 0.748
NCI-H2023 | 0.62
NCI-H1563 | 0.978
SK-LU-1 | 1.1
SK-MES-1 | 1.02
NCI-H661 | 0.595

Same assay, conditions: first compound 0.3162 µM

Cell Line | relative viability
NCI-H838 | 1.08
EBC-1 | 0.914
NCI-H1703 | 0.279
NCI-H1993 | 0.703
NCI-H2347 | 1.06
PC-14 | 0.934
LCLC-103H | 0.973
NCI-H596 | 0.457
NCI-H2126 | 0.811
EMC-BAC-2 | 0.767
NCI-H2085 | 0.995
Calu-6 | 0.956
HCC-366 | 0.444
NCI-H1666 | 0.954
NCI-H647 | 1.19
LK-2 | 1.05
NCI-H2087 | 0.979
NCI-H1395 | 1.12
H3255 | 0.695
COR-L23 | 0.925

Cell Line | relative viability
COR-L 105 | 1.07
IA-LM | 0.669
LOU-NH91 | 0.816
NCI-H358 | 0.864
NCI-H3122 | 0.884
HOP-62 | 1.23
HCC-44 | 0.74
A549 | 0.746
NCI-H2009 | 1.09
NCI-H520 | 0.873
SW 1573 | 0.808
NCI-H1299 | 1
NCI-H2228 | 0.769
NCI-H1792 | 0.69
NCI-H2023 | 0.57
NCI-H1563 | 0.935
SK-LU-1 | 1.05
SK-MES-1 | 0.977
NCI-H661 | 0.669

Same assay, conditions: first compound 1 µM

Cell Line | relative viability
NCI-H838 | 1.11
EBC-1 | 1
NCI-H1703 | 0.278
NCI-H1993 | 0.733
NCI-H2347 | 1.16
PC-14 | 0.935
LCLC-103H | 1.06
NCI-H596 | 0.513
NCI-H2126 | 0.806
EMC-BAC-2 | 0.747
NCI-H2085 | 1.05
Calu-6 | 0.99
HCC-366 | 0.454
NCI-H1666 | 1.16
NCI-H647 | 1.11
LK-2 | 0.843
NCI-H2087 | 1.06
NCI-H1395 | 1.17
H3255 | 0.741
COR-L23 | 0.717

Cell Line | relative viability
COR-L 105 | 1.04
IA-LM | 0.509
LOU-NH91 | 0.746
NCI-H358 | 0.922
NCI-H3122 | 0.736
HOP-62 | 1.07
HCC-44 | 0.793
A549 | 1.01
NCI-H2009 | 1
NCI-H520 | 0.816
SW 1573 | 0.81
NCI-H1299 | 1.06
NCI-H2228 | 0.643
NCI-H1792 | 0.69
NCI-H2023 | 0.591
NCI-H1563 | 0.929
SK-LU-1 | 1.04
SK-MES-1 | 0.836
NCI-H661 | 0.866
